Results taken from patent publication US11046649B2, “Compounds useful as inhibitors of indoleamine 2,3-dioxygenase and/or tryptophan dioxygenase” (Board of Regents, The University of Texas System, priority 2018, dated 2021).

These compounds were tested against T1, IDO1 (Homo sapiens, UniProt P14902) (assay: IDO1 cell-based assay). Conditions: HeLa cells, 10 ng/mL IFNgamma, 24 hours with test compound; N-Formyl Kynurenine and L-tryptophan quantified by RFMS.
T1 construct: endogenous in cells; host or cells: HeLa cells (ATCC), IDO1 induced with 10 ng/mL IFNgamma
T1 sequence (P14902 whole entry): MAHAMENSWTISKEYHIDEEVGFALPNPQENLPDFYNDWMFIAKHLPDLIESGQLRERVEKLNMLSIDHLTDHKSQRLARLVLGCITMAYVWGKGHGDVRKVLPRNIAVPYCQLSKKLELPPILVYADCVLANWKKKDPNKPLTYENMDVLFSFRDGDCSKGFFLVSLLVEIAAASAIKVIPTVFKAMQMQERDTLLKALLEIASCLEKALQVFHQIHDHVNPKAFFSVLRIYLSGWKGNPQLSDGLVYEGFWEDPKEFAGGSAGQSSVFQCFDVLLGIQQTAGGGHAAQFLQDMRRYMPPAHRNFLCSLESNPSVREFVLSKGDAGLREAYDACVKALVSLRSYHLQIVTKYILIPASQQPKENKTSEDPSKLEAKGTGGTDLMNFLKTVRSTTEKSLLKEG

IC50 [nM] | SMILES
329 | C[C@H](C(=O)Nc1ccc(-c2ccc(F)cc2)cc1)[C@H]1[C@@H]2C[C@@H](n3cnc4cc(F)c(F)cc43)C[C@@H]21 [Example 93, (S)-2-((1R,3R,5S,6r)-3-(5,6-difluoro-1H-benzo[d]-imidazol-1-yl)bicyclo-[3.1.0]hexan-6-yl)-N-(4′-fluoro-[1,1′-biphenyl]-4-yl)propanamide]
1090 | CC(C(=O)NC1CCN(C(=O)OC(C)(C)C)CC1)[C@H]1[C@@H]2C[C@@H](Oc3ccnc4ccc(F)cc34)C[C@@H]21 (stereo partly drawn) [Example 94, tert-butyl 4-(2-((1R,3s,5S,6r)-3-((6-fluoroquinolin-4-yl)oxy)-bicyclo[3.1.0]hexan-6-yl)-propanamido)piperidine-1-carboxylate]
231 | CC(C(=O)Nc1nc2c(Br)cc(Cl)cc2s1)[C@H]1[C@@H]2C[C@@H](Oc3ccnc4ccc(F)cc34)C[C@@H]21 (stereo partly drawn) [Example 95, N-(4-bromo-6-chloro-benzo[d]thiazol-2-yl)-2-((1R,3s,5S,6r)-3-((6-fluoroquinolin-4-yl)-oxy)bicyclo[3.1.0]hexan-6-yl)propanamide]
45.3 | CC(C(=O)NC12CC(c3ccc(F)cc3)(C1)C2)[C@H]1[C@@H]2C[C@@H](Oc3ccnc4ccc(F)cc34)C[C@@H]21 (stereo partly drawn) [Example 100, N-(3-(4-fluorophenyl)-bicyclo[1.1.1]pentan-1-yl)-2-((1R,3s,5S,6r)-3-((6-fluoroquinolin-4-yl)-oxy)bicyclo[3.1.0]hexan-6-yl)propanamide]
17.9 | CC(C(=O)Nc1ccn(CC(F)(F)F)n1)[C@H]1[C@@H]2C[C@@H](Oc3ccnc4ccc(F)cc34)C[C@@H]21 (stereo partly drawn) [Example 105, 2-((1R,3s,5S,6r)-3-((6-fluoroquinolin-4-yl)oxy)-bicyclo[3.1.0]hexan-6-yl)-N-(1-(2,2,2-trifluoroethyl)-1H-pyrazol-3-yl)-propanamide]
9.2 | CC(C(=O)Nc1nc2ccccc2[nH]1)[C@H]1[C@@H]2C[C@@H](Oc3ccnc4ccc(F)cc34)C[C@@H]21 (stereo partly drawn) [Example 107, N-(1H-benzo[d]imidazol-2-yl)-2-((1R,3s,5S,6r)-3-((6-fluoroquinolin-4-yl)oxy)-bicyclo[3.1.0]hexan-6-yl)propanamide]
21.3 | CCC(C(=O)Nc1ccc(C(N)=O)cn1)[C@H]1[C@@H]2C[C@@H](Oc3ccnc4ccc(F)cc34)C[C@@H]21 (stereo partly drawn) [Example 118, 6-(2-((1R,3s,5S,6r)-3-((6-fluoroquinolin-4-yl)oxy)-bicyclo[3.1.0]hexan-6-yl)-butanamido)nicotinamide]
6.9 | CCC(C(=O)Nc1ccc(-n2cncn2)cn1)[C@H]1[C@@H]2C[C@@H](Oc3ccnc4ccc(F)cc34)C[C@@H]21 (stereo partly drawn) [Example 119, N-(5-(1H-1,2,4-triazol-1-yl)pyridin-2-yl)-2-((1R,3s,5S,6r)-3-((6-fluoro-quinolin-4-yl)oxy)-bicyclo[3.1.0]hexan-6-yl)-butanamide]
1.43 | CCC(C(=O)Nc1cnc(C)cn1)[C@H]1[C@@H]2C[C@@H](Oc3ccnc4ccc(F)cc34)C[C@@H]21 (stereo partly drawn) [Example 120, 2-((1R,3s,5S,6r)-3-((6-fluoroquinolin-4-yl)oxy)-bicyclo[3.1.0]hexan-6-yl)-N-(5-methylpyrazin-2-yl)-butanamide]
1.67 | N#Cc1ccc(NC(=O)C(C2CC2)[C@H]2[C@@H]3C[C@@H](Oc4ccnc5ccc(F)cc45)C[C@@H]32)nc1 (stereo partly drawn) [Example 121, N-(5-cyanopyridin-2-yl)-2-cyclopropyl-2-((1R,3s,5S,6r)-3-((6-fluoroquinolin-4-yl)-oxy)bicyclo[3.1.0]hexan-6-yl)acetamide]
8.41 | N#Cc1ccc(NC(=O)C(C2CC2)[C@H]2[C@@H]3C[C@@H](Oc4ccnc5ccc(F)cc45)C[C@@H]32)nn1 (stereo partly drawn) [Example 124, N-(6-cyanopyridazin-3-yl)-2-cyclopropyl-2-((1R,3s,5S,6r)-3-((6-fluoroquinolin-4-yl)oxy)-bicyclo[3.1.0]hexan-6-yl)acetamide]
